By EC50 is commonly meant the concentration giving half of the maximal effect. As usually defined, the Ki is a dissociation constant, usually derived from enzyme kinetics or from competition with a known ligand. Broadly, the ED50 is the midpoint of the dose-response relation.

Molecules are shown by their SMILES. Like-named read-outs stand apart in the source and are kept apart here. Some results are limits rather than exact numbers.

Experiment [1] has as its target T1, 5-HT2A receptor (Homo sapiens (Human), UniProt P28223). The experiment can be described thus: FLIPR Ca2+ flux functional assay at 5-HT2A (HEK293). The settings on record: for 5-HT2A % Act @ Max Conc.: HEK293, at max concentration.
For another experiment, the target named is 5-HT2B receptor (Homo sapiens (Human), UniProt P41595). Nature of the experiment: FLIPR Ca2+ flux functional assay at 5-HT2B (HEK293). As to conditions: for 5-HT2B % Act @ Max Conc.: HEK293, at max concentration.
Chain of 5-HT2B receptor (P41595 whole entry, looked up): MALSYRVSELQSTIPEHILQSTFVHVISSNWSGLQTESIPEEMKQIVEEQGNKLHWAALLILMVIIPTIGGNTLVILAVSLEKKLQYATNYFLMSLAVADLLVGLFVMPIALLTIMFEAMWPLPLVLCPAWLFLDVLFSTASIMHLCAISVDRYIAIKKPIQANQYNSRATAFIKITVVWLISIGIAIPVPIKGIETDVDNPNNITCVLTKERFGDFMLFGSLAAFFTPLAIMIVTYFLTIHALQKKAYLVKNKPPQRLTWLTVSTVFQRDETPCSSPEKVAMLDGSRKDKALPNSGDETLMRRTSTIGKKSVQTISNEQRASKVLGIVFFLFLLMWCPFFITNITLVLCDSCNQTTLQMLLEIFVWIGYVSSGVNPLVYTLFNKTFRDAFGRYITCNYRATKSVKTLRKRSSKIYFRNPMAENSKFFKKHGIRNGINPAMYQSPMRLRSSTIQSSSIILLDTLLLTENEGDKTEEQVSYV
The target of another experiment is 5-HT1A receptor (Homo sapiens (Human), UniProt P08908). Nature of the experiment: FLIPR Ca2+ flux functional assay at 5-HT1A (CHO cells). As to conditions: for 5-HT1A % Act @ Max Conc.: Ca2+ flux, CHO cells, at max concentration. In general terms: A change in cytosolic calcium serves as a functional read-out for many receptors and channels.
The target in experiment [2] is T1, 5-HT2A receptor. The experiment can be described thus: 5-HT2A receptor radioligand binding with [3H]ketanserin.
For a further experiment, the system named is C57BL/6 mice. The experiment can be described thus: Automated (video tracking) head twitch response (HTR) assay in mice. The class given is in vivo. As to conditions: SC; for ED50: Mus musculus, 20 min, 20 min recording, read-out: ED50; for Most Efficacious Dose; mg/kg: dose giving the most HTR. On the procedure:
Disclosed compounds were tested for their ability to induce a head twitch response (HTR) in mice using an automated video tracking procedure, with the results summarized in Table 5. […] The phenyl Compound 44 was substantially more efficacious at inducing HTR than its pyridine counterpart Compound 29, in agreement with the generally lower maximal efficacy of the disclosed pyridine compounds for signaling through 5-HT2A receptors.
Animals. Adult male C57BL/6 mice aged 8-10 weeks (body weight 20-25 g) were used in these experiments. Animals were housed under controlled temperatures and 12-hour light/dark cycles (lights on between 07:00-19:00 h), with ad libitum food and water. The protocol was approved by the Institutional Animal Care and Use Committee at the study site. This study was carried out in strict accordance with the recommendations in the Guide for the Care and Use of Laboratory Animals of the National Institutes of Health. All efforts were made to minimize suffering.
Drugs and Drug Administration. […] was commercially obtained. Disclosed compounds were synthesized as described above. They were administered subcutaneously (SC) dissolved in saline (or saline acidified with 1-2 molar equivalents HCl to form the salt in situ for freebase compounds) at a volume of 10 mL/kg. Five doses were tested, with N=5-8 animals/group. Doses were calculated on the basis of the freebase, except for DOI, which was calculated based on the HCl salt.
Procedure. Mice were administered one dose of the drug and immediately placed into a small open field for behavioral observation. High-speed video of animals' behavior was captured continuously for 20 min. Video recordings were imported into an image processing software, which detects multiple points of interest on each animal's body, including the left and right ear. HTR events were defined as periodic deviations of ear locations from temporally averaged ear locations. Predefined thresholds for magnitude and frequency of location deviations were used to filter […] events from random head movements. The method was validated by comparing detected events with manual (human) observations and found to have an accuracy >95%. The total number of HTR events counted during the 20-min recording were determined for each animal at each dose.
Statistical Analysis. Analysis was performed using GraphPad Prism 9. Dose-response curves were fit via non-linear regression using the Gaussian 2020 function in Prism in order to determine the ED50 and Emax for each compound.

Where [3] appears, read: read-out: Ki at 5-HT2A Receptor (nM) ([3H]ketanserin), HEK293 stable cell line, 1 nM [3H]ketanserin, 1 h, 25 °C.

For `CCCCCc1cc(OC)c(CC(C)N)nc1OC` (centres unmarked) [Compound 4, 1-(3,6-dimethoxy-5-pentylpyridin-2-yl)propan-2-amine], the EC50 is 15.4 nM on 5-HT2A receptor [1], more than 10000 nM on 5-HT2B receptor and 48100 nM at 5-HT1A receptor. Besides, the “5-HT2A % Act @ Max Conc.” value on 5-HT2A receptor [1] (Ca2+ flux) is 132.71%. The “5-HT2B % Act @ Max Conc.” value at 5-HT2B receptor (Ca2+ flux) was found to be 14.53%. For the same compound, the “5-HT1A % Act @ Max Conc.” value at 5-HT1A receptor is given as 67.31%. For the same compound, the Ki on 5-HT2A receptor [2] (setting [3]) came to 26.2 nM.

Take `CCCc1cc(OC)c(CCN)nc1OC` [Compound 36, 2-(3,6-dimethoxy-5-propylpyridin-2-yl)ethan-1-amine]: in the experiment on C57BL/6 mice, the ED50 stood at 0.972 mg/kg, the “Emax (HTR counts/20 min)” value came to 48.79 HTR counts/20 min, the “# HTR/20 min at Most Efficacious Dose” value stood at 48.12 HTR/20 min and the “Most Efficacious Dose; mg/kg” value is listed as “(10) mg/kg”. On 5-HT2A receptor [1], this compound displayed a 50% effective concentration (EC50) of 4.14 nM. Further, the “5-HT2A % Act @ Max Conc.” value at 5-HT2A receptor [1] (Ca2+ flux) was 88.19%. The concentration giving a half-maximal response (EC50) on 5-HT2B receptor was determined as 184 nM. Besides, the “5-HT2B % Act @ Max Conc.” value at 5-HT2B receptor (Ca2+ flux) is listed as 21.53%. At 5-HT1A receptor, the EC50 is more than 100000 nM and the “5-HT1A % Act @ Max Conc.” value stood at 3.03%. Besides, on 5-HT2A receptor [2] (setting [3]), the inhibition constant Ki was 35.4 nM.

On to `CCCCc1cc(OC)c(CCN)nc1OC` [Compound 31, 2-(5-butyl-3,6-dimethoxypyridin-2-yl)ethan-1-amine], for which, in the experiment on C57BL/6 mice, the median effective dose (ED50) was 1.29 mg/kg, the “Emax (HTR counts/20 min)” value is listed as 43.42 HTR counts/20 min, the “# HTR/20 min at Most Efficacious Dose” value is on record as 43.38 HTR/20 min and the “Most Efficacious Dose; mg/kg” value was “(3.2) mg/kg”. The response at 5-HT2A receptor [1] was half-maximal at 7.88 nM (EC50). For the same compound, the “5-HT2A % Act @ Max Conc.” value at 5-HT2A receptor [1] (Ca2+ flux) was 90.63%. Moreover, the EC50 on 5-HT2B receptor is more than 10000 nM. At 5-HT2B receptor (Ca2+ flux), the “5-HT2B % Act @ Max Conc.” value is reported as 7.29%. Further, at 5-HT1A receptor, the concentration for a half-maximal effect (EC50) is more than 100000 nM and the “5-HT1A % Act @ Max Conc.” value came out at 21.32%. Also, on 5-HT2A receptor [2] (setting [3]), the Ki turned out to be 19.7 nM.

Take `CCc1cc(OC)c(CCN)cc1OC` [Compound 2C-E, 2C-E, reference compound]: on 5-HT2A receptor [1] (Ca2+ flux), the “5-HT2A % Act @ Max Conc.” value is 105%. Besides, the concentration giving a half-maximal response (EC50) on 5-HT2A receptor [1] (read-out: 5-HT2A EC50, Ca2+ flux, HEK293) came to 0.747 nM; at 5-HT2B receptor (read-out: 5-HT2B EC50, Ca2+ flux, HEK293) it was 29.7 nM. Further, the “5-HT2B % Act @ Max Conc.” value at 5-HT2B receptor (Ca2+ flux) is given as 66.2%. Further, the “5-HT1A % Act @ Max Conc.” value on 5-HT1A receptor turned out to be 17.9%. For the same compound, on 5-HT2A receptor [2] (setting [3]), the Ki came to 16.7 nM.

For the compound `COc1cc(CCCCC(F)(F)F)c(OC)nc1CCN` [Compound 35, 2-(3,6-dimethoxy-5-(5,5,5-trifluoropentyl)pyridin-2-yl)ethan-1-amine], the EC50 is 38.5 nM at 5-HT2A receptor [1], 341 nM at 5-HT2B receptor and more than 100000 nM at 5-HT1A receptor. Also, the “5-HT2A % Act @ Max Conc.” value at 5-HT2A receptor [1] (Ca2+ flux) is 48.95%. For the same compound, the “5-HT2B % Act @ Max Conc.” value at 5-HT2B receptor (Ca2+ flux) was determined as 32.44%. For the same compound, the “5-HT1A % Act @ Max Conc.” value at 5-HT1A receptor was 41.47%. The same compound returned a Ki at 5-HT2A receptor [2] of 13.6 nM.

In the case of `COc1cc(Cl)c(OC)nc1CCN` [Compound 16, 2-(5-chloro-3,6-dimethoxypyridin-2-yl)ethan-1-amine], the EC50 at 5-HT2A receptor [1] was 20.1 nM; at 5-HT2B receptor it was 1400 nM; on 5-HT1A receptor, more than 100000 nM. For the same compound, at 5-HT2A receptor [1] (Ca2+ flux), the “5-HT2A % Act @ Max Conc.” value was 97.33%. The “5-HT2B % Act @ Max Conc.” value on 5-HT2B receptor (Ca2+ flux) is 38.95%. Besides, the “5-HT1A % Act @ Max Conc.” value on 5-HT1A receptor came out at 5.31%. At 5-HT2A receptor [2] (setting [3]), the inhibitory constant (Ki) was found to be 264 nM.

`COc1ccccc1CNCCc1nc(OC)c(Br)cc1OC` [Compound 25, 2-(5-bromo-3,6-dimethoxypyridin-2-yl)-N-(2-methoxybenzyl)ethan-1-amine]: the EC50 was 1.59 nM on 5-HT2A receptor [1], more than 10000 nM at 5-HT2B receptor and more than 100000 nM at 5-HT1A receptor. Moreover, the “5-HT2A % Act @ Max Conc.” value on 5-HT2A receptor [1] (Ca2+ flux) is reported as 93.57%. In addition, the “5-HT2B % Act @ Max Conc.” value at 5-HT2B receptor (Ca2+ flux) is reported as 8.22%. Moreover, the “5-HT1A % Act @ Max Conc.” value on 5-HT1A receptor is reported as 21.35%. In addition, the Ki at 5-HT2A receptor [2] (setting [3]) came to 0.35 nM.

The values above are taken from US20250270173A1, “PYRIDINE DERIVATIVES FOR TREATING PSYCHIATRIC DISORDERS” (GILGAMESH PHARMACEUTICALS, INC., priority 2022, published 2025).
